We go through ten compounds from US8183405B2, “Obovatol derivatives or pharmaceutically acceptable salts thereof, preparation method thereof and pharmaceutical composition for the prevention and treatment of cancer containing the same as an active ingredient” (Korea Research Institute of Bioscience and Biotechnology, priority 2008, dated 2012).

Data set [1] in a line: Assay for acute oral toxicity in rat. To be noted: SD, in vivo, 500 mg/kg, oral administration, rats. The procedure: Specific pathogen free (SPF) SD rats 6 weeks old were used for this assay. The obovatol derivative prepared in Example 1 or 2 was dissolved in distilled water, and the solution was orally administered at a dose of 500 mg/kg to respective groups of two rats.
Autopsies were performed to check for abnormalities of the thoracic and abdominal organs with the naked eye.

The test system of data set [2] is colorectal cancer cells (SW620). Briefly: Apoptotic effect on cancer cells (annexin V-FITC/PI FACS). It is filed as cell-based, human. To be noted: 50 μM, 48 hours, 14.12% at pre-treatment. On the procedure: Apoptosis was analyzed using flow cytometry. First, colorectal cancer cells (SW620) were treated with 0.1% DMSO (negative control), 0 μM, 30 μM or 50 μM of the compound of Example 1 for 48 hours and detached with 0.05% trypsin-EDTA. After being harvested through centrifugation, the cells were washed twice with PBS (phosphate-buffered saline) and suspended at a density of 1×10^6 cells/ml in a 1× binding buffer (10 mM Hepes/NaOH, pH 7.4, 140 mM NaCl, and 2.5 mM CaCl2). 100 μl of the cell suspension was transferred into a 5 ml culture tube, mixed with 5 μl of annexin V-FITC and 10 μl of PI (propidium iodide), and incubated at room temperature for 15 min in a light-tight condition. Then, 400 μl of 1×binding buffer was added to each tube, followed by FACS analysis for annexin V-FITC-stained cells (Moussa Alkhalaf, Abdulla El-Mowafy, Waleed Renno, Ousama Rachid, Ahmed Ali, and Raja Al-Attyiah, Archives of Medical Research 39, 162-168, 2006).
In FACS plots of FIG. 1, the distribution of stained cells is shown. Cell migration to the second quadrant and the fourth quadrant refers to an increase in chromosome number, meaning an increased number of cells in the G2/M phase or S phase.
The third quadrant and the fourth quadrant of the FACS plot indicate cells expressing the early apoptosis marker annexin V.

Data set [3] can be described thus: Solubility (Table 1). The conditions noted are these: for Solubility Insoluble: solvents in which the compound is insoluble; for Solubility Soluble: solvents in which the compound is soluble. It is filed as physicochemical.
Data set [4] deals with human cancer cell line. Put plainly: Inhibitory effect on growth of cancer cell (WST-1). It is filed as cell-based. The conditions noted are these: for OD: 48 hours, WST-1, absorbance at 450 nm, control OD 0.604. On the procedure: The compounds prepared in Examples 1, 2 and 3 were evaluated for inhibitory activity against the growth of a human cancer cell line using WST-1. Human cancer cell lines were incubated in 10% fetal bovine serum (FBS)-supplemented media at 37°C. in a 5% CO2 atmosphere, followed by detaching the cells with 0.05% trypsin-EDTA.
Cells were plated onto […] at a density of 4,000 cells (A549, MDA-MB-231), 5,000 cells (HEK293, NCI-H23) or 6,000 cells (HCA-7, HCT116, SW620, DU145) per well, which were counted using a hematocytometer.
After incubation in 10% FBS-supplemented media at 37°C. for 24 hours in a 5% CO2 incubator, the media was changed with fresh media containing a control (0.1% DMSO) or the compound of Example 1 in an amount of 5, 10, 15, 20, 25 or 30 μg/ml (dissolved in DMSO and diluted in the medium). After 48 hours of treatment, WST-1 (Roche) was added in an amount of 10 μl to each well and incubated for 2 hrs. Absorbance at 450 nm was read in an ELISA reader (Bio-Rad).

`CCCc1ccc(Oc2cc(CCC)cc(O)c2O)cc1` [Example 1, 3-(4-propylphenoxy)-5-propylbenzene-1,2-diol] yielded a 50% lethal dose (LD50) in data set [1] not below 500 mg/kg. The “fraction of the cells migrating to the third quadrant (annexin V)” value in data set [2] was found to be 59.58%. The “Solubility Insoluble” value in data set [3] is reported as “Water”. The “Solubility Soluble” value in data set [3] was “Alcohol, DMSO”. Also, the OD in data set [4] (5 μg/ml) was 0.592; in data set [4] (10 μg/ml), 0.557; in data set [4] (15 μg/ml), 0.474; in data set [4] (20 μg/ml) it was 0.247; in data set [4] (25 μg/ml), 0.149; in data set [4] (30 μg/ml), 0.141. For the same compound, the “inhibit the growth of cancer cells” value in data set [4] (concentration of 20 μg/ml or higher) was not below 50%.

`C=CCc1ccc(Oc2cc(CC=C)cc(O)c2OC)cc1` [Example 2, 3-(4-allylphenoxy)-5-allyl-2-methoxyphenol] registered a 50% lethal dose (LD50) in data set [1] not below 500 mg/kg. Also, in data set [3], the “Solubility Insoluble” value was “Hexane, Water” and the “Solubility Soluble” value is on record as “Alcohol, DMSO”.

Regarding `C=CCc1ccc(Oc2cc(CC=C)cc(OC(C)=O)c2OC(C)=O)cc1` [Example 3, 1-(4-allylphenoxy)-5-allyl-2,3-diacetyloxybenzene], in data set [3], the “Solubility Insoluble” value was “Hexane, Water” and the “Solubility Soluble” value is listed as “Alcohol, DMSO”.

Turning to `C=CCc1ccc(Oc2cc(CC=C)cc(OC(=O)COC)c2OC(=O)COC)cc1` [Example 4, 1-(4-allylphenoxy)-5-allyl-2,3-di-2-methoxyacetyloxybenzene], in data set [3], the “Solubility Insoluble” value was “Hexane, Water” and the “Solubility Soluble” value is given as “Alcohol, DMSO”.

Take `CCCc1ccc(Oc2cc(CCC)cc(O)c2OC)cc1` [Example 5, 3-(4-propylphenoxy)-2-methoxy-5-propylphenol]: in data set [3], the “Solubility Insoluble” value is reported as “Hexane, Water” and the “Solubility Soluble” value is “Alcohol, DMSO”.

In the case of `CCCc1ccc(Oc2cc(CCC)cc(OC(C)=O)c2OC(C)=O)cc1` [Example 6, 1-(4-propylphenoxy)-2,3-diacetyloxy-5-propylbenzene], in data set [3], the “Solubility Insoluble” value is “Water” and the “Solubility Soluble” value is listed as “Alcohol, DMSO”.

For the compound `CCCc1ccc(Oc2cc(CCC)cc(OC(=O)COC)c2OC(=O)COC)cc1` [Example 7, 1-(4-propylphenoxy)-2,3-di-2-methoxyacetyloxy-5-propylbenzene], in data set [3], the “Solubility Insoluble” value is “Water” and the “Solubility Soluble” value is “Alcohol, DMSO”.

On to `C/C=C/c1ccc(Oc2cc(/C=C/C)cc(O)c2O)cc1` [Example 8, 3-(4-((E)-prop-1-enyl)phenoxy)-5-((E)-prop-1-enyl)benzene-1,2-diol], for which, in data set [3], the “Solubility Insoluble” value was “Water” and the “Solubility Soluble” value is reported as “Alcohol, DMSO”.

As to `C/C=C/c1ccc(Oc2cc(/C=C/C)cc(OC(C)=O)c2OC(C)=O)cc1` [Example 9, 1-(4-((E)-prop-1-enyl)phenoxy)-2,3-diacetyloxy-5-((E)-prop-1-enyl) benzene], in data set [3], the “Solubility Insoluble” value is “Water” and the “Solubility Soluble” value is reported as “Alcohol, DMSO”.

For `C/C=C/c1ccc(Oc2cc(/C=C/C)cc(OC(=O)COC)c2OC(=O)COC)cc1` [Example 10, 1-(4-((E)-prop-1-enyl)phenoxy)-2,3-di-2-methoxyacetyloxy-5-((E)-prop-1-enyl)benzene], in data set [3], the “Solubility Insoluble” value is recorded as “Water” and the “Solubility Soluble” value is on record as “Alcohol, DMSO”.

By LD50 is commonly meant the dose expected to kill half of the subjects tested. Read a high LD50 as lower toxicity.
